Assays:
msh2^−/− cells = experiment: puro(A)10 polymerase slippage assay, puromycin resistant colonies; assay type: cell-based, mouse; conditions: puro(A)10 reporter, 10 μM TREX2 inhibitor, colonies counted about day 10, DMSO versus compounds p<0.02, FIGS. 8B, 8C
[1] = tested on: mouse embryonic stem (ES) cells; experiment: reduction of mutations in mouse ES cells by screening hits; assay type: cell-based; conditions: five of nineteen screening hits
From the text: Assays as described here were used to screen a Chembridge Diverset library (30,000 compounds). […] These small molecules are: 4-benzoyl-2-methyphenyl (2-nitrophenoxy) acetate; N-benzyl-2-([bis(furan-2-yl)-1,2,4-triazin-3-yl] sulfanyl) acetamide; 6-(benzylcarbamoyl)-1-methycyclohex-3-ene-1-carboxylic acid; 8-(phenylamino)naphthalene-1-sulfonic acid; and benzyl 6-(furan-2-yl)-3-methyl-4-oxo-4,5,6,7-tetrahydro-1H-indole-2-carboxylate. […] TX2Is appear to be nontoxic to cells and TREX2-deletion was asymptomatic for >50% of life span.

[2] = tested on: RAD51^K133A expressing cells; experiment: miniHPRT loss of heterozygosity (LOH) assay, TG-resistant cells; assay type: cell-based, mouse; conditions: control versus compounds p<0.018, average of three replicates, FIG. 8A
Procedure: To evaluate loss of heterozygosity, the loss of function (LOF) of miniHPRT was measured by survival in 6-TG. ES cells were grown in 1× hypoxanthine, aminopterin, thymidine (HAT) for at least 4 days followed by growth in 1× HT for 2 days and then no selection for 1 day. Cells were counted and seeded at 2×10^5 cells/10 cm feeder plates (3 plates) and selected in 10 μM 6-thioguanine (6-TG). For plating efficiency, 2000 cells were seeded on two wells of 6-well feeder plate. Eight days after plating, the number of 6-TG resistant colonies was counted. […] That is >159-fold difference. The average of three biological replicates are presented (p<0.0001 for lane 4 versus lanes 5 and 6, unpaired student T test). Deletion of TREX2 in HsRAD51^K133A expressing cells reduces loss of heterozygosity to levels lower than in wild type cells. Therefore, TREX2 caused greatest loss of heterozygosity and gross chromosomal rearrangements in HR-defective cells.
TREX2-deletion also imparts a synthetic phenotype in HR-mutant and MMR-mutant cells to hydroxyurea (HU) and camptothecin (CPT). Both CPT and HU stall RFs and are used for cancer therapy. CPT binds type 1 […] to DNA to cause a break when a replication fork collides into it while HU inhibits ribonucleotide reductase to deplete nucleotides. Therefore, TX2Is enhance cytotoxicity of chemotherapeutic agents in cancer cells while protecting the patient from mutations to reduce the risk of therapy-related disease. RAD51^K133A was expressed in mouse ES cells to negatively alter HR. In these HR defective cells, TREX2-deletion decreased survival to camptothecin and reduced loss of heterozygosity (LOH) to levels lower than cells expressing RAD51 wild type (WT) and TREX2 WT. LOH is loss of miniHPRT, which can be scored as resistance to 6-thioguanine (TG). FIGS. 5A and 5B are graphical representations of the effects of TREX2-deletions measured as survival fractions. […] The average of three biological replicates are presented.
Compounds #1, 6, and 10 reduce LOH in RAD51^K133A expressing cells using miniHPRT. […]

ES cells = experiment: response of ES cells to hydroxyurea (RPA32 phosphorylation, chromatid breaks)

Row | Structure (SMILES) | spontaneous polymerase slippage (fraction of puromycin resistant cells) (msh2^−/− cells) | effect on mutations in mouse ES cells [1] | LOH (percentage of TG-resistant cells) [2] | chromatid breaks (ES cells; high HU dose) | DNA damage response (RPA32 phosphorylation) (ES cells; high HU dose (4 mM, 5 hours)) | DNA damage response (RPA32 phosphorylation) (ES cells; low HU dose (0.5 mM, 1.5 hours))
1 | Cc1cc(C(=O)c2ccccc2)ccc1OC(=O)COc1ccccc1[N+](=O)[O-] [Compound 1, 4-benzoyl-2-methyphenyl (2-nitrophenoxy) acetate] | reduce spontaneous polymerase slippage | reduce a range of mutations | reduce LOH | – | – | –
2 | O=S(=O)(O)c1cccc2cccc(Nc3ccccc3)c12 [Compound 6, 8-(phenylamino)naphthalene-1-sulfonic acid] | reduce spontaneous polymerase slippage | reduce a range of mutations | reduce LOH | – | – | –
3 | O=C(CSc1nnc(-c2ccco2)c(-c2ccco2)n1)NCc1ccccc1 [Compound 10, N-benzyl-2-([bis(furan-2-yl)-1,2,4-triazin-3-yl]sulfanyl) acetamide] | reduce spontaneous polymerase slippage | reduce a range of mutations | reduce LOH | – | – | –
4 | CC1(C(=O)O)CC=CCC1C(=O)NCc1ccccc1 (stereo not drawn) [Compound 11, 6-(benzylcarbamoyl)-1-methycyclohex-3-ene-1-carboxylic acid] | reduce spontaneous polymerase slippage | reduce a range of mutations | – | – | – | –
5 | NC(=O)NO [HU, hydroxyurea] | – | – | – | produced more chromatid breaks | induced both an ATR and a DNA-PKCS response | induced an ATR response
6 | Cc1c(C(=O)OCc2ccccc2)[nH]c2c1C(=O)CC(c1ccco1)C2 (stereo not drawn) [benzyl 6-(furan-2-yl)-3-methyl-4-oxo-4,5,6,7-tetrahydro-1H-indole-2-carboxylate] | – | reduce a range of mutations | – | – | – | –
